Reference: patent publication US20210046097A1, “NEUTRAL ENDOPEPTIDASE (NEP) AND HUMAN SOLUBLE ENDOPEPTIDASE (hSEP) INHIBITORS FOR PROPHYLAXIS AND TREATMENT OF EYE DISEASES” (FORTY-FOUR PHARMACEUTICALS SP. Z.O.O, priority 2018, published 2021)

Experiments:
[1] = system: doxorubicin-induced apoptosis in the liver; experiment: Doxorubicin-induced apoptosis in rat liver (TUNEL staining, stereological disector); assay type: in vivo
From the text: (§1) Apoptosis is a significant component of cell death in optic and/or eye diseases including (i) all forms of primary and secondary glaucoma, preferably such as e.g. primary open-angle glaucoma, normal-tension glaucoma, primary angle-closure glaucoma, pseudoexfoliation syndrome and glaucoma, pigment dispersion syndrome and glaucoma, neovascular glaucoma, inflammatory glaucoma, lens-related glaucoma, traumatic glaucoma, primary congenital glaucoma, iatrogenic induced glaucoma, and malignant glaucoma (R. Agarwal, S. K. Gupta, P. Agarwal, R. Saxena & S. S. Agrawal (2009) Indian J. Ophthalmol. 57, 257-266); (ii) aquired macular disorders, preferably such as e.g. age-related macular degeneration, idiopathic choroidal neovascularisation, central serous chorioretinopathy, vitreomacular interface disorders, idiopathic macular telangiectasia, cystoid macular oedema, and microcystic macular oedema (J. L. Dunaief, T. Dentchev, G.-S. Ying & A. H. Milam (2002) Arch. Ophthalmol. 120, 1435-1442); (iii) optic neuropathy, preferably such as e.g. anterior or posterior ischemic optic neuropathy (B. J. Slater, Z. Mehrabian, Y. Guo, A. Hunter & S. L. Bernstein (2008) Invest. Ophthalmol. Vis. Sci. 49, 3671-3676); (iv) optic neuritis (K. S. Shindler, E. Ventura, M. Dutt & A. Rostami (2008) Exp.Eye Res. 87, 208-213); (v) uveitis, preferably such as e.g. anterior uveitis, intermediate uveitis, posterior uveitis, and panuveitis (C.-C. Chan, D. M. Matteson, Q. Li, S. M. Whitcup & R. B. Nussenblatt (1997) Arch. Ophthalmol. 115, 1559-1567); (vi) hereditary fundus dystrophies, preferably such as e.g. retinitis pigmentosa, cone dystrophy, cone-rod dystrophy, rod dystrophy, Stargardt's disease, Bietti's crystalline corneoretinal dystrophy, familial benign fleck retina, Best vitelliform macular dystrophy, adult-onset vitelliform macular dystrophy, North Carolina macular dystrophy, familial dominant drusen, and concentric annular macular dystrophy (H. Zhang, X. Li, X. Dai, J. Han, Y. Zhang, Y. Qi, Y. He, Y. Liu, B. Chang & J. J. Pang (2017) J. Ophthalmol. 2017, 1-13 9721362); (vii) retinal vascular diseases, preferably such as e.g. diabetic retinopathy, non-diabetic retinopathy, retinal venous occlusive disease, retinal arterial occlusive disease, ocular ischemic syndrome, hypertensive eye disease, sickle cell retinopathy, thalassemia retinopathy, retinopathy of prematurity, retinal artery macroaneurysm, primary retinal telangiectasia, Eales disease, and radiation retinopathy (G. Donati, A. Kapetanios, M. Dubois-Dauphin & C. J. Pournaras (2008) Acta Ophthalmol. 86, 302-306); (viii) scleritis or episcleritis (C. Heinz, N. Bograd, J. Koch & A. Heiligenhaus (2013) Graefes Arch. Clin. Exp. Ophthalmol. 251, 139-142); (ix) retinal detachments (J. G. Arroyo, L. Yang, D. Bula & D. F. Chen (2005) Am. […]

[2] = system: doxorubicin-induced apoptosis in retinal ganglion cells; experiment: Doxorubicin-induced apoptosis in rat retinal ganglion cells (intravitreal doxorubicin, TUNEL staining, stereological disector); assay type: in vivo
From the text: as §1

[3] = 60 mg/kg/d s.c., result in words
[4] = vs doxorubicin + vehicle, 60 mg/kg/d s.c.

## O=C(O)CN1C(=O)[C@@H](NC(=O)C2(C[C@@H](CCc3ccccc3)C(=O)O)CCCC2)CCc2ccccc21 [Example (6), (2R)-2-{[1-({[(3S)-1-(carboxymethyl)-2-oxo-2,3,4,5-tetrahydro-1H-1-benzazepin-3-yl]amino}carbonyl)cyclopentyl]methyl}-4-phenylbutanoic acid]
[1]; [3]
  Protection against doxorubicin induced apoptosis in the liver (reduction of Nv of TUNEL positive cells vs vehicle): significant protection
[1]; Wistar rats, 60 mg/kg/d s.c. osmotic minipump, doxorubicin 5 mg/kg i.p. t.i.d. days 1-3, 5 days after first injection, mean ± SEM
  Nv, number of TUNEL positive cells, liver: 7.93 ± 0.25 TUNEL positive cells×10^2/mm^3
[1]; Wistar rats, 60 mg/kg/d s.c. osmotic minipump, doxorubicin 5 mg/kg i.p. t.i.d. days 1-3, day 5
  Nv as % of doxorubicin + vehicle, liver: 76.54%
[1]; [4]
  Decrease of density of apoptotic cells in the rat liver: 23.46%
[2]; [3]
  Protection against doxorubicin induced apoptosis in the retina (reduction of Nv of TUNEL positive cells vs vehicle): significant protection
[2]; Wistar rats, 60 mg/kg/d s.c. osmotic minipump, doxorubicin 5 μg into vitreous body day 1, 5 days after, mean ± SEM
  Nv, number of TUNEL positive cells, retinal ganglion cells (RGC): 33.64 ± 0.96 TUNEL positive cells×10^3/mm^3
[2]; Wistar rats, 60 mg/kg/d s.c. osmotic minipump, doxorubicin 5 μg into vitreous body day 1, day 5
  Nv as % of doxorubicin + vehicle, RGC: 91.79%
[2]; [4]
  Decrease of density of apoptotic cells in the retina: 8.21%
